Test results from patent US5861274A, “Nucleic acids encoding peroxisome proliferator-activated receptor” (The Salk Institute for Biological Studies, priority 1995, dated 1999).
“Also recorded” adds a separate entry of the source.

How the values were obtained:
PPARδ = target: T1, PPARδ (Mus musculus, UniProt P35396); experiment: Cotransfection assay, PPRE3-TK-LUC reporter with CMX-PPARδ; type: cell-based; conditions: CV-1 cells; for activation of PPARδ (reporter expression), in words: 5 μM Wy 14,643, 30 μM linoleic acid or 30 μM LY-171883; for rank order of efficacy of activation, PPARδ: FIG. 4, 5 μM Wy 14,643, 30 μM linoleic acid, 30 μM LY-171883
T1 sequence (P35396 1-440): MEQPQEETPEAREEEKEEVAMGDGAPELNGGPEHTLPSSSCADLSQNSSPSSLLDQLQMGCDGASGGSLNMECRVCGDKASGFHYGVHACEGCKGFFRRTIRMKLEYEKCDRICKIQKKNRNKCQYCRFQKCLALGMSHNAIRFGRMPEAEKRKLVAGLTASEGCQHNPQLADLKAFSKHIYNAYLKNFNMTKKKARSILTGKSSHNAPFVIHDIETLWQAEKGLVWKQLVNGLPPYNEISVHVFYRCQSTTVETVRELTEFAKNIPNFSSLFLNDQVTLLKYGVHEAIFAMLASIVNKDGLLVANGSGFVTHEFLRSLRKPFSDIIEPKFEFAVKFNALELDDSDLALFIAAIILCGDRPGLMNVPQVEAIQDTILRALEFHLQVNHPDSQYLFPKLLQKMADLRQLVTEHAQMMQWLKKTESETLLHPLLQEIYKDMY
Description: (§1) The mammalian expression vectors pCMX-PPARα, pCMX-PPARγ and pCMX-PPARδ were constructed by inserting the cDNA inserts of PPARα, PPARγ, and PPARδ into pCMX as previously described by Umesono et al., in Cell 65:1255-1266 (1991)). Construction of the reporter PPRE3 -TK-LUC has also been previously described by Kliewer et al., (1992) supra. Cotransfection assays in CV-1 cells were done in 48 well plates using N-[1-(2,3-dioleoyloxy)-propyl[N,N,N-trimethylammonium methyl sulfate (DOTAP) according to the manufacturer's instructions (Boehringer Mannheim). Transfections contained […] of receptor expression plasmid vector, 20 ng of the reporter PPRE3 -TK-LUC, 60 ng of pCMX-βGAL (β-galactosidase) as an internal control, and 210 ng of carrier plasmid pGEM. Cells were incubated in the presence of DOTAP for 8 hours, washed, and incubated in the presence of peroxisome proliferators or fatty acids for 36 hours. Cell extracts were prepared and assayed for luciferase and β-galactosidase activity as previously described (Umesono, supra). All experimental points were done in triplicate.

PPARα = target: T2, PPARα (Mus musculus, UniProt P23204); experiment: Cotransfection assay, PPRE3-TK-LUC reporter with CMX-PPARα; type: cell-based; conditions: CV-1 cells; for rank order of efficacy of activation, PPARα: FIG. 4, 5 μM Wy 14,643, 30 μM linoleic acid, 30 μM LY-171883
T2 sequence (P23204 1-468): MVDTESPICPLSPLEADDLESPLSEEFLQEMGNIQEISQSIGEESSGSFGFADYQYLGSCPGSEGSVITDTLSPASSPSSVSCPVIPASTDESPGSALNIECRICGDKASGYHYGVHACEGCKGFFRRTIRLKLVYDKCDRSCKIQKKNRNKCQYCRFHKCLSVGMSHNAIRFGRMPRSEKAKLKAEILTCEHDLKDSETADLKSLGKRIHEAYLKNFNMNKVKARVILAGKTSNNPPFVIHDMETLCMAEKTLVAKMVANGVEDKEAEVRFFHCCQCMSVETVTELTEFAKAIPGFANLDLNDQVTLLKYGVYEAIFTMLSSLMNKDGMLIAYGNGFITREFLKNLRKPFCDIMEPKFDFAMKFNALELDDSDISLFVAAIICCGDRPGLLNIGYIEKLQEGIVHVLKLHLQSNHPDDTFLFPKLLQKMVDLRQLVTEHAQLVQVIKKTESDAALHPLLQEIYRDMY
Description: as §1

PPARγ = target: T3, PPARγ (Mus musculus, UniProt P37238); experiment: Cotransfection assay, PPRE3-TK-LUC reporter with CMX-PPARγ; type: cell-based; conditions: CV-1 cells; for activation of PPARγ (reporter expression), in words: 5 μM Wy 14,643, 30 μM linoleic acid or 30 μM LY-171883; for rank order of efficacy of activation, PPARγ: FIG. 4, 5 μM Wy 14,643, 30 μM linoleic acid, 30 μM LY-171883
T3 sequence (P37238 31-475 N383S): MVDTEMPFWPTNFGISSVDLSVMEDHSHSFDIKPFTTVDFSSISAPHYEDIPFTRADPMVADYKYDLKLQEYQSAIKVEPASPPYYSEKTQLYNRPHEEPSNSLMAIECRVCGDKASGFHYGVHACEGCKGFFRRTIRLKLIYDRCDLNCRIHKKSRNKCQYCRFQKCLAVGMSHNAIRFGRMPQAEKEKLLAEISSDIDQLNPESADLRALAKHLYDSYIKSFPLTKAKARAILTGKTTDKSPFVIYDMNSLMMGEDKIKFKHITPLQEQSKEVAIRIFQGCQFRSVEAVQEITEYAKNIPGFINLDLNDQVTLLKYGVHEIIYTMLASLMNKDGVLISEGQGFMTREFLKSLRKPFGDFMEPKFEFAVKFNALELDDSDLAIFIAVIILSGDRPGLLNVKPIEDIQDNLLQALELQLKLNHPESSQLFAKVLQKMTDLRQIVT
Description: Luciferase activities are presented as the fold activation achieved in compound-treated versus mock-treated cells. Similar results were obtained in triplicate in three independent experiments.
as §1

PPARalpha (Mus musculus) = experiment: cell_activity; conditions: activation by 5 uM Wy 14,643 in CV-1 cells

| Compound | activation of PPARδ (reporter expression), in words (PPARδ) | rank order of efficacy of activation, PPARδ (PPARδ) | rank order of efficacy of activation, PPARα (PPARα) | activation of PPARγ (reporter expression), in words (PPARγ) | rank order of efficacy of activation, PPARγ (PPARγ) | activation of PPARα (reporter expression), in words (PPARα; 5 μM Wy 14,643, 30 μM linoleic acid or 30 μM LY-171883) | activity (PPARalpha (Mus musculus)) [fold] |
| --- | --- | --- | --- | --- | --- | --- | --- |
| CCCc1c(OCCCCc2nnn[nH]2)ccc(C(C)=O)c1O [LY-171883] | strong activators | linoleic acid>LY-171883 and Wy 14,643 | Wy 14,643>LY-171883>linoleic acid | significant activation; also recorded: most efficiently activated | LY 171883>linoleic acid>Wy 14,643 |  |  |
| Cc1cccc(Nc2cc(Cl)nc(SCC(=O)O)n2)c1C [Wy 14,643] |  |  | Wy 14,643>LY-171883>linoleic acid | no activation; also recorded: fail 30 to respond; also recorded: fails to activate | LY 171883>linoleic acid>Wy 14,643 | most efficiently activated |  |
| CCCCC/C=C\C/C=C\CCCCCCCC(=O)O [linoleic acid] | strong activators; also recorded: most efficiently activated | linoleic acid>LY-171883 and Wy 14,643 | Wy 14,643>LY-171883>linoleic acid | no activation | LY 171883>linoleic acid>Wy 14,643 |  |  |
| PPRE3-TK-LUC reporter |  |  |  |  |  |  | > 100 |
